Key:
Experiment in all cases: KINOMEscan kinase profiling
Format in all cases: binding
GAK = biological target: T1, GAK (Homo sapiens, UniProt O14976); conditions: read-out: %Inhibition by 10 μM SPA70
T1 construct: purchased DiscoverX (Ambit Biosciences) KINOMEscan
In short: (§1)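 KINOMEscan profiling followed a published protocol. Kinases whose inhibition exceeded a set cut-off were then tested in a dilution series beginning at 30 µM.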

CDK4-cyclinD3 = biological target: T2, CDK4-cyclinD3 (Homo sapiens, UniProt P11802); conditions: read-out: %Inhibition by 10 μM SPA70
T2 construct: purchased DiscoverX (Ambit Biosciences) KINOMEscan
In short: as §1

RIPK2 = biological target: T3, RIPK2 (Homo sapiens, UniProt O43353); conditions: read-out: %Inhibition by 10 μM SPA70
T3 construct: purchased DiscoverX (Ambit Biosciences) KINOMEscan
In short: as §1

TAK1 = biological target: T4, TAK1 (Homo sapiens, UniProt O43318); conditions: read-out: %Inhibition by 10 μM SPA70
T4 construct: purchased DiscoverX (Ambit Biosciences) KINOMEscan
In short: as §1

BMPR1A = biological target: T5, BMPR1A (Homo sapiens, UniProt P36894); conditions: read-out: %Inhibition by 10 μM SPA70
T5 construct: purchased DiscoverX (Ambit Biosciences) KINOMEscan
In short: as §1

FLT3 = biological target: T6, FLT3 (Homo sapiens, UniProt P36888); conditions: read-out: %Inhibition by 10 μM SPA70
T6 construct: purchased DiscoverX (Ambit Biosciences) KINOMEscan
In short: as §1

TGFBR1 = biological target: T7, TGFBR1 (Homo sapiens, UniProt P36897); conditions: read-out: %Inhibition by 10 μM SPA70
T7 construct: purchased DiscoverX (Ambit Biosciences) KINOMEscan
In short: as §1

[1] = biological target: T8, RPS6KA4(Kin.Dom.1-N-terminal) (Homo sapiens, UniProt O75676); conditions: read-out: %Inhibition by 10 μM SPA70
T8 construct: RPS6KA4(Kin.Dom.1-N-terminal); purchased DiscoverX (Ambit Biosciences) KINOMEscan
In short: as §1

AURKB = biological target: T9, AURKB (Homo sapiens, UniProt Q96GD4); conditions: read-out: %Inhibition by 10 μM SPA70
T9 construct: purchased DiscoverX (Ambit Biosciences) KINOMEscan
In short: as §1

CAMKK1 = biological target: T10, CAMKK1 (Homo sapiens, UniProt Q8N5S9); conditions: read-out: %Inhibition by 10 μM SPA70
T10 construct: purchased DiscoverX (Ambit Biosciences) KINOMEscan
In short: as §1

NEK7 = biological target: T11, NEK7 (Homo sapiens, UniProt Q8TDX7); conditions: read-out: %Inhibition by 10 μM SPA70
T11 construct: purchased DiscoverX (Ambit Biosciences) KINOMEscan
In short: as §1

CDK5 = biological target: T12, CDK5 (Homo sapiens, UniProt Q00535)
T12 construct: purchased DiscoverX (Ambit Biosciences) KINOMEscan
In short: as §1

CSNK1G2 = biological target: T13, CSNK1G2 (Homo sapiens, UniProt P78368)
T13 construct: purchased DiscoverX (Ambit Biosciences) KINOMEscan
In short: as §1

CDKL5 = biological target: T14, CDKL5 (Homo sapiens, UniProt O76039); conditions: read-out: %Inhibition by 10 μM SPA70
T14 construct: purchased DiscoverX (Ambit Biosciences) KINOMEscan
In short: as §1

FGFR4 = biological target: T15, FGFR4 (Homo sapiens, UniProt P22455); conditions: read-out: %Inhibition by 10 μM SPA70
T15 construct: purchased DiscoverX (Ambit Biosciences) KINOMEscan
In short: as §1

TIE2 = biological target: T16, TIE2 (Homo sapiens, UniProt Q02763); conditions: read-out: %Inhibition by 10 μM SPA70
T16 construct: purchased DiscoverX (Ambit Biosciences) KINOMEscan
In short: as §1

EIF2AK1 = biological target: T17, EIF2AK1 (Homo sapiens, UniProt Q9BQI3); conditions: read-out: %Inhibition by 10 μM SPA70
T17 construct: purchased DiscoverX (Ambit Biosciences) KINOMEscan
In short: as §1

PLK4 = biological target: T18, PLK4 (Homo sapiens, UniProt O00444); conditions: read-out: %Inhibition by 10 μM SPA70
T18 construct: purchased DiscoverX (Ambit Biosciences) KINOMEscan
In short: as §1

PRKCI = biological target: T19, PRKCI (Homo sapiens, UniProt P41743); conditions: read-out: %Inhibition by 10 μM SPA70
T19 construct: purchased DiscoverX (Ambit Biosciences) KINOMEscan
In short: as §1

NEK1 = biological target: T20, NEK1 (Homo sapiens, UniProt Q96PY6); conditions: read-out: %Inhibition by 10 μM SPA70
T20 construct: purchased DiscoverX (Ambit Biosciences) KINOMEscan
In short: as §1

MLK1 = biological target: T21, MLK1 (Homo sapiens, UniProt P80192); conditions: read-out: %Inhibition by 10 μM SPA70
T21 construct: purchased DiscoverX (Ambit Biosciences) KINOMEscan
In short: as §1

LATS1 = biological target: T22, LATS1 (Homo sapiens, UniProt O95835); conditions: read-out: %Inhibition by 10 μM SPA70
T22 construct: purchased DiscoverX (Ambit Biosciences) KINOMEscan
In short: as §1

DDR2 = biological target: T23, DDR2 (Homo sapiens, UniProt Q16832); conditions: read-out: %Inhibition by 10 μM SPA70
T23 construct: purchased DiscoverX (Ambit Biosciences) KINOMEscan
In short: as §1

MAP4K4 = biological target: T24, MAP4K4 (Homo sapiens, UniProt O95819); conditions: read-out: %Inhibition by 10 μM SPA70
T24 construct: purchased DiscoverX (Ambit Biosciences) KINOMEscan
In short: as §1

CLK2 = biological target: T25, CLK2 (Homo sapiens, UniProt P49760); conditions: read-out: %Inhibition by 10 μM SPA70
T25 construct: purchased DiscoverX (Ambit Biosciences) KINOMEscan
In short: as §1

STK16 = biological target: T26, STK16 (Homo sapiens, UniProt O75716); conditions: read-out: %Inhibition by 10 μM SPA70
T26 construct: purchased DiscoverX (Ambit Biosciences) KINOMEscan
In short: as §1

PIK4CB = biological target: T27, PIK4CB (Homo sapiens, UniProt Q9UBF8); conditions: read-out: %Inhibition by 10 μM SPA70
T27 construct: purchased DiscoverX (Ambit Biosciences) KINOMEscan
In short: as §1

MAP3K15 = biological target: T28, MAP3K15 (Homo sapiens, UniProt Q6ZN16); conditions: read-out: %Inhibition by 10 μM SPA70
T28 construct: purchased DiscoverX (Ambit Biosciences) KINOMEscan
In short: as §1

TTK = biological target: T29, TTK (Homo sapiens, UniProt P33981); conditions: read-out: %Inhibition by 10 μM SPA70
T29 construct: purchased DiscoverX (Ambit Biosciences) KINOMEscan
In short: as §1

CAMK2B = biological target: T30, CAMK2B (Homo sapiens, UniProt Q13554); conditions: read-out: %Inhibition by 10 μM SPA70
T30 construct: purchased DiscoverX (Ambit Biosciences) KINOMEscan
In short: as §1

OSR1 = biological target: T31, OSR1 (Homo sapiens, UniProt O95747); conditions: read-out: %Inhibition by 10 μM SPA70
T31 construct: purchased DiscoverX (Ambit Biosciences) KINOMEscan
In short: as §1

EPHA2 = biological target: T32, EPHA2 (Homo sapiens, UniProt P29317); conditions: read-out: %Inhibition by 10 μM SPA70
T32 construct: purchased DiscoverX (Ambit Biosciences) KINOMEscan
In short: as §1

DYRK1B = biological target: T33, DYRK1B (Homo sapiens, UniProt Q9Y463); conditions: read-out: %Inhibition by 10 μM SPA70
T33 construct: purchased DiscoverX (Ambit Biosciences) KINOMEscan
In short: as §1

PCTK2 = biological target: T34, PCTK2 (Homo sapiens, UniProt Q00537); conditions: read-out: %Inhibition by 10 μM SPA70
T34 construct: purchased DiscoverX (Ambit Biosciences) KINOMEscan
In short: as §1

ULK2 = biological target: T35, ULK2 (Homo sapiens, UniProt Q8IYT8); conditions: read-out: %Inhibition by 10 μM SPA70
T35 construct: purchased DiscoverX (Ambit Biosciences) KINOMEscan
In short: as §1

MYLK2 = biological target: T36, MYLK2 (Homo sapiens, UniProt Q9H1R3); conditions: read-out: %Inhibition by 10 μM SPA70
T36 construct: purchased DiscoverX (Ambit Biosciences) KINOMEscan
In short: as §1

FYN = biological target: T37, FYN (Homo sapiens, UniProt P06241); conditions: read-out: %Inhibition by 10 μM SPA70
T37 construct: purchased DiscoverX (Ambit Biosciences) KINOMEscan
In short: as §1

ADCK4 = biological target: T38, ADCK4 (Homo sapiens, UniProt Q96D53); conditions: read-out: %Inhibition by 10 μM SPA70
T38 construct: purchased DiscoverX (Ambit Biosciences) KINOMEscan
In short: as §1

AKT2 = biological target: T39, AKT2 (Homo sapiens, UniProt P31751); conditions: read-out: %Inhibition by 10 μM SPA70
T39 construct: purchased DiscoverX (Ambit Biosciences) KINOMEscan
In short: as §1

CLK4 = biological target: T40, CLK4 (Homo sapiens, UniProt Q9HAZ1); conditions: read-out: %Inhibition by 10 μM SPA70
T40 construct: purchased DiscoverX (Ambit Biosciences) KINOMEscan
In short: as §1

TNIK = biological target: T41, TNIK (Homo sapiens, UniProt Q9UKE5); conditions: read-out: %Inhibition by 10 μM SPA70
T41 construct: purchased DiscoverX (Ambit Biosciences) KINOMEscan
In short: as §1

PAK6 = biological target: T42, PAK6 (Homo sapiens, UniProt Q9NQU5); conditions: read-out: %Inhibition by 10 μM SPA70
T42 construct: purchased DiscoverX (Ambit Biosciences) KINOMEscan
In short: as §1

T12 sequence (Q00535 whole entry): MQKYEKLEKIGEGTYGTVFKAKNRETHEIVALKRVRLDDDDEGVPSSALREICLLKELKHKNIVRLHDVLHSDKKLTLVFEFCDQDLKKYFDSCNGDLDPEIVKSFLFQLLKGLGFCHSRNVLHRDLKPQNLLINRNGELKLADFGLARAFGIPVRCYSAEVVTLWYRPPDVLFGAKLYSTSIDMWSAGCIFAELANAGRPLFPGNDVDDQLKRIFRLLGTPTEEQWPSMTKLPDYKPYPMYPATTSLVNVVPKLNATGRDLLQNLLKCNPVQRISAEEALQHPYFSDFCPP
T35 sequence (Q8IYT8 whole entry): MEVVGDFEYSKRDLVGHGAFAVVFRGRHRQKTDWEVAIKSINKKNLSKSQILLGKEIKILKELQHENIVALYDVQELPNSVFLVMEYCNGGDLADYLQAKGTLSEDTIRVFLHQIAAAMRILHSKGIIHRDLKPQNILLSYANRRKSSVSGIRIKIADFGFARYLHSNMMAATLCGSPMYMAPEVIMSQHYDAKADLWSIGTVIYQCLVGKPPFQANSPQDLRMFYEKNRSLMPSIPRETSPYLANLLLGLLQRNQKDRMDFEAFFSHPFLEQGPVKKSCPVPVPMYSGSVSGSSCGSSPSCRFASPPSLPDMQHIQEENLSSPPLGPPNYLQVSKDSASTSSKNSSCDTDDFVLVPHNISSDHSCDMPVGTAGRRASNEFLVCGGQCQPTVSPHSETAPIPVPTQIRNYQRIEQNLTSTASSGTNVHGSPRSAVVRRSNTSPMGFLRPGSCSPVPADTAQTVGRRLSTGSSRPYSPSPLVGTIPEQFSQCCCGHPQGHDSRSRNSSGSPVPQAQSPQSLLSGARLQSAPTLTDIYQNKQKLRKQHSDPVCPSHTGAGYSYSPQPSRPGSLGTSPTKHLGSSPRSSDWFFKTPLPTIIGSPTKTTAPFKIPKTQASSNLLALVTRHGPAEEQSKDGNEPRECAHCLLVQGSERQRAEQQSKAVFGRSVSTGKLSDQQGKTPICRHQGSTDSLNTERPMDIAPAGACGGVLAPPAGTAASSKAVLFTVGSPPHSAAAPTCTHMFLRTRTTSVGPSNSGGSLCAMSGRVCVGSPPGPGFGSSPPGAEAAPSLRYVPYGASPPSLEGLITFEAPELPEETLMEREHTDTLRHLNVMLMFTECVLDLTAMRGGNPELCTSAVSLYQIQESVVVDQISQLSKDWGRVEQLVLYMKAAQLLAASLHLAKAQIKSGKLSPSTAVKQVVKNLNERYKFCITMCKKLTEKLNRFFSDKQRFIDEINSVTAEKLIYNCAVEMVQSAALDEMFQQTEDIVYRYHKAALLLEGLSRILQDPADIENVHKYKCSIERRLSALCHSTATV
T32 sequence (P29317 24-976): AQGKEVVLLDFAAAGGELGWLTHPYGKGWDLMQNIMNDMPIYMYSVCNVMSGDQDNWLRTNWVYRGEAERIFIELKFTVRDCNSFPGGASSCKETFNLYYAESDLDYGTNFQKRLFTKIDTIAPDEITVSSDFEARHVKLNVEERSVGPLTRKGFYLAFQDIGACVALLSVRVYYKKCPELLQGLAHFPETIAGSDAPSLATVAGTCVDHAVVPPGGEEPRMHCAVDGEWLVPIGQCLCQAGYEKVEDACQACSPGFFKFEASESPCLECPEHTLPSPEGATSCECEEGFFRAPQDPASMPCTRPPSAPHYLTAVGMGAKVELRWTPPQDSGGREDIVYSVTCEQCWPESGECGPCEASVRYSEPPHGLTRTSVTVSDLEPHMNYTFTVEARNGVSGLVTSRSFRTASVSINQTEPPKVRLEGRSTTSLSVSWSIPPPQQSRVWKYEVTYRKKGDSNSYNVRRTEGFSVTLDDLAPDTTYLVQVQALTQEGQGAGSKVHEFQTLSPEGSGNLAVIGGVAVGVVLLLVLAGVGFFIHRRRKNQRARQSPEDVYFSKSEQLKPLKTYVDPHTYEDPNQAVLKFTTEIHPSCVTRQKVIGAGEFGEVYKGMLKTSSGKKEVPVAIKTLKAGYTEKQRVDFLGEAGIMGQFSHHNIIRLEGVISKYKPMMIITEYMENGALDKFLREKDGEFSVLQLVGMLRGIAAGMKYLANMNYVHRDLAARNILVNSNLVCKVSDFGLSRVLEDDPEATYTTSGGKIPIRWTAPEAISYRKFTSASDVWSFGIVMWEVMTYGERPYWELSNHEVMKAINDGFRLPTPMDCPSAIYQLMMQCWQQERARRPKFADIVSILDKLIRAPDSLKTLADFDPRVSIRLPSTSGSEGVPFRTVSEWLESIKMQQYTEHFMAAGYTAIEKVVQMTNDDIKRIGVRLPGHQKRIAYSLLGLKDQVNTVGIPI
T21 sequence (P80192 whole entry): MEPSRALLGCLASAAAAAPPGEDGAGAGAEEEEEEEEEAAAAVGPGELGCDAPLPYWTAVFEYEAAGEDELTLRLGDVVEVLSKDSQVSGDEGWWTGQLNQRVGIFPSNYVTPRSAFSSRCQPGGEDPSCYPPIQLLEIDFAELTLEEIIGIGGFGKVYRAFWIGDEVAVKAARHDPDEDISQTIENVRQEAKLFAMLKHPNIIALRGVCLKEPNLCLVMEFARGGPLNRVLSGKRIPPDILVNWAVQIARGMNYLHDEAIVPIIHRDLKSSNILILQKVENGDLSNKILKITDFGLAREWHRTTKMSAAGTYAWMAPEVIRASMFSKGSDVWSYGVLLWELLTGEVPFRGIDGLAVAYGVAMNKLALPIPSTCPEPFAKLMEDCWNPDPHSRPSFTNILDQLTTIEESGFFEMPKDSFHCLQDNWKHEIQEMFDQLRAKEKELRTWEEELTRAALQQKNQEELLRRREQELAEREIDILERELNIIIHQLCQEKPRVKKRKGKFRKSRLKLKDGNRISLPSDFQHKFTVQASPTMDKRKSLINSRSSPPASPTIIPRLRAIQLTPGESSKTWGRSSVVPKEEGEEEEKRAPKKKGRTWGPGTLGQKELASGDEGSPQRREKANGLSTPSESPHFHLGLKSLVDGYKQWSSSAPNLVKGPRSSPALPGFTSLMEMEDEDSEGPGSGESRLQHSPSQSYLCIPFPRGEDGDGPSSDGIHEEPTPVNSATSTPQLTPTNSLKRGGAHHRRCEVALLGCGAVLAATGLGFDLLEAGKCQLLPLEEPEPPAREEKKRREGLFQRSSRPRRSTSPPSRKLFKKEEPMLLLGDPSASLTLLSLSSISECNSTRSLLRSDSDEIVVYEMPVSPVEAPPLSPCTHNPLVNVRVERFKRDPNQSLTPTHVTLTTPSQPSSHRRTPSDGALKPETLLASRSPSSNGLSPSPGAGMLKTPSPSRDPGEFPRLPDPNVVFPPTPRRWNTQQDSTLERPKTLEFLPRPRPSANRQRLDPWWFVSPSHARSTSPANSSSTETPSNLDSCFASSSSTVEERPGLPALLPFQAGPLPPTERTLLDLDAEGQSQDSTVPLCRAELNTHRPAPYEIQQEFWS
T4 sequence (O43318 whole entry): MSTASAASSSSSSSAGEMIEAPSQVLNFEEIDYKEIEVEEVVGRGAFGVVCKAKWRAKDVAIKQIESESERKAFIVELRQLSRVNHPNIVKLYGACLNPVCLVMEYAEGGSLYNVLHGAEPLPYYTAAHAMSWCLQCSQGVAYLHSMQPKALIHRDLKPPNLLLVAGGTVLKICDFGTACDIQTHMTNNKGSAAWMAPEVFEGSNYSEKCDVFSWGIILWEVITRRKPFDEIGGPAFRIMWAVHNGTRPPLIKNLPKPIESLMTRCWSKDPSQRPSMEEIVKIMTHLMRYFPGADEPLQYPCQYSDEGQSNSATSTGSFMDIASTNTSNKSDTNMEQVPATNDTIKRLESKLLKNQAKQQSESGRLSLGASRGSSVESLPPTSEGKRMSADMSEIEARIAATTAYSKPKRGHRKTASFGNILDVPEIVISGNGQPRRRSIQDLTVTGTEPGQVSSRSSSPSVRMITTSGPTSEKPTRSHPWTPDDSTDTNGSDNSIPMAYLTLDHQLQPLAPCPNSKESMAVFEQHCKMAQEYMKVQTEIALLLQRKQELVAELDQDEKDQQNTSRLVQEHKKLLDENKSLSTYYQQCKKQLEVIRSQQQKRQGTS
T29 sequence (P33981 whole entry): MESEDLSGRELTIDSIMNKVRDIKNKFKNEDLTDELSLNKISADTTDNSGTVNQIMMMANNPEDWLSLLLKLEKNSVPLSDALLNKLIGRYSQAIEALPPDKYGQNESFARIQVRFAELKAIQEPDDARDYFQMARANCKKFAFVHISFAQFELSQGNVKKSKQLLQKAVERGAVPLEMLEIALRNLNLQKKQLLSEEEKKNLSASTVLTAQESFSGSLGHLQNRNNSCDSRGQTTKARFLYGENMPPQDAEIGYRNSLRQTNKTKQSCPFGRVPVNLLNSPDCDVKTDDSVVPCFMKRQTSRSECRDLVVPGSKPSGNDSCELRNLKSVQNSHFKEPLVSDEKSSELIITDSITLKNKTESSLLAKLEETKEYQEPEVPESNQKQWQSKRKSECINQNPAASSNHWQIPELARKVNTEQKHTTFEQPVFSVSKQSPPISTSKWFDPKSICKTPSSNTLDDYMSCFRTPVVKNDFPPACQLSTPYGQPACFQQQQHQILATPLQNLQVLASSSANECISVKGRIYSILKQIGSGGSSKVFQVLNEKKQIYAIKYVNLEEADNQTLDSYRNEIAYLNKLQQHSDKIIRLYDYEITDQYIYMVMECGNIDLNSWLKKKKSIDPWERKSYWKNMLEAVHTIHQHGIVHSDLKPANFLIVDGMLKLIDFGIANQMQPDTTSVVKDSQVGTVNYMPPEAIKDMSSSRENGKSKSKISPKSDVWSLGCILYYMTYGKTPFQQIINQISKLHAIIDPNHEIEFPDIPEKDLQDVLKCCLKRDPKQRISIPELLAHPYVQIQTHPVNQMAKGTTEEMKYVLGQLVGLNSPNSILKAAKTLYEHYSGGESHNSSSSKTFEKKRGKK

Structure (SMILES): COc1ccc(OC)c(-n2nnc(S(=O)(=O)c3ccc(C(C)(C)C)cc3)c2C)c1 [SPA70]
- inhibition at 10 µM (GAK): 3%
- inhibition at 10 µM (CDK4-cyclinD3): 19%
- inhibition at 10 µM (RIPK2): 0%
- inhibition at 10 µM (TAK1): 0%
- inhibition at 10 µM (BMPR1A): 2%
- inhibition at 10 µM (FLT3): 0%
- inhibition at 10 µM (TGFBR1): 20%
- inhibition at 10 µM [1]: 0%
- inhibition at 10 µM (AURKB): 8%
- inhibition at 10 µM (CAMKK1): 1%
- inhibition at 10 µM (NEK7): 0%
- %Inhibition by 10 μM SPA70 (CDK5): not inhibited
- inhibition at 10 µM (CDK5; read-out: %Inhibition by 10 μM SPA70): 0%
- %Inhibition by 10 μM SPA70 (CSNK1G2): 0%
- inhibition at 10 µM (CDKL5): 8%
- inhibition at 10 µM (FGFR4): 5%
- inhibition at 10 µM (TIE2): 0%
- inhibition at 10 µM (EIF2AK1): 0%
- inhibition at 10 µM (PLK4): 9%
- inhibition at 10 µM (PRKCI): 0%
- inhibition at 10 µM (NEK1): 0%
- inhibition at 10 µM (MLK1): 0%
- inhibition at 10 µM (LATS1): 0%
- inhibition at 10 µM (DDR2): 0%
- inhibition at 10 µM (MAP4K4): 0%
- inhibition at 10 µM (CLK2): 24%
- inhibition at 10 µM (STK16): 0%
- inhibition at 10 µM (PIK4CB): 27%
- inhibition at 10 µM (MAP3K15): 0%
- inhibition at 10 µM (TTK): 0%
- inhibition at 10 µM (CAMK2B): 13%
- inhibition at 10 µM (OSR1): 14%
- inhibition at 10 µM (EPHA2): 0%
- inhibition at 10 µM (DYRK1B): 0%
- inhibition at 10 µM (PCTK2): 0%
- inhibition at 10 µM (ULK2): 0%
- inhibition at 10 µM (MYLK2): 0%
- inhibition at 10 µM (FYN): 0%
- inhibition at 10 µM (ADCK4): 16%
- inhibition at 10 µM (AKT2): 0%
- inhibition at 10 µM (CLK4): 4%
- inhibition at 10 µM (TNIK): 10%
- inhibition at 10 µM (PAK6): 4%
